Test results from patent publication US20110091587A1, “PHASE II DETOXIFICATION AND ANTIOXIDANT ACTIVITY” (JOSLIN DIABETES CENTER, INC., priority 2007, published 2011).

Test system: GCS-1::GFP
Assay: GCS-1::GFP reporter expression in the intestine of transgenic worms
Format: in vivo, C. elegans
Source text: A nucleic acid encoding the GCS-1 promoter (as described in An and Blackwell, 2003, Genes & Dev., 17, 1882-1893) was fused with a sequence encoding green fluorescent protein (GFP) to prepare a reporter construct (gcs-1::GFP) using standard molecular biology techniques. This fusion construct gene was transferred into C. elegans (An and Blackwell, 2003, Genes & Dev., 17, 1882-1893; Mello, et al., EMBO J. 1991. 10(12):3959-70), and the obtained transformed C. elegans were used in the experiment. Under normal, less oxidative stress conditions, the gcs-1::GFP construct is expressed in the pharynx area and ASI of C. elegans, where fluorescence emission of GFP can be measured.
Experiments were conducted to study the influence of the various extracts prepared in Example 1 on expression of the GCS-1::GFP reporter construct (described in Example 2) in C. elegans, following the method according to An and Blackwell, 2003, Genes & Dev., 17, 1882-1893.
Before each experiment, approximately 20 L4 stage worms carrying the GCS-1::GFP reporter construct transgene were picked to NGM plates (a type of agar media, see Brenner, Genetics, 1974 May; 77(1):71-94), containing OP50 bacteria (an E. coli strain, food for C. elegans), and were allowed to grow for 2 to 3 days. The worms were transferred together with a saline medium (M9) for treatment with the test materials to a microcentrifuge tube by flooding the NGM plate surface with the saline medium (M9). The microcentrifuge tube was then centrifuged, and a supernatant was removed. The same procedure was repeated again to wash the worms. This washing removed the bacteria which had been given as food.
Once the worms were washed, they were added for incubation in the specified test materials at the specified concentrations for the following amounts of time. Initially, incubation time was 30 minutes, and was later extended to include 60, 90, and 120 minutes. After treatment for said given times, the worms were washed in M9 at least twice, transferred back to an NGM plate containing bacteria, and allowed to recover for about 30 minutes. The worms were then mounted on slides, and scored for GFP expression levels under a microscope. GFP expression levels in the intestines of each worm were evaluated based on three scores; high, medium, and low expressions. A high score was given for worms with GFP expression through out the intestine. GFP expression midway up the intestine was scored medium. A low score was given to worms with very little or no GFP expression in their intestine. […]

[1] = comparison of GCS-1::GFP, Δ2 and Δ2mut3 worms

C[S+]([O-])CCCCN=C=S (stereo not shown) [sulforaphane]
regulation of GCS-1::GFP expression by SKN-1 [1]: not partially regulated by SKN-1
site of GCS-1::GFP expression [1]: about half of GCS-1::GFP expression was seen in the pharynx
effect on GCS-1::GFP expression (sulforaphane 1 mg/mL, after 30, 60 or 90 minutes of incubation): no effect was seen
incubation time at which effect was first seen (sulforaphane 1 mg/mL, longer incubation): 6 h
